Legend:
[1] = test system: brownbanded cockroach males; settings: cited from earlier work
male German cockroaches = assay: two-choice olfactometer behavioral assay; format: in vivo, Blattella germanica
Procedure: FIG. 3 is a graphic representation of behavioral responses of male German cockroaches to one female equivalent of a crude extract of many virgin females and to various doses of the synthetic pheromone, gentisyl quinone isovalerate. The pheromone was applied in 20 μl of methylene chloride to a filter paper disc and presented to single males acclimated in the two-choice olfactometer vs. a methylene chloride control filter paper. Behavioral response is defined as quiescent males that were activated and ran out of their cage. Each assay consisted of testing 10-16 males in individual olfactometers and the assays were replicated 3-18 times. The mean responses and SEM are indicated.
FIG. 4 is a graphic representation of behavioral responses of male German cockroaches to one female equivalent of a crude extract of many virgin females and to various doses of the synthetic pheromone, gentisyl quinone isovalerate. Procedures are as in FIG. 3, but reported is the latency in seconds before males left their cages.
The biological activity of extracts and fractions was assayed both behaviorally and with an electroantennogram (“EAG”). Schal et al., “Site of Pheromone Production in Female Supella longipalpa (F.) (Dictyoptera: Blattellidae): Behavioral, Electrophysiological, and Morphological Evidence,” Annals Entomol. Soc. Amer. 85:605-611 (1992), which is hereby incorporated by reference in its entirety. For behavioral assays a two-choice olfactometer was used. Liang et al., “Effects of Pheromone Concentration and Photoperiod on the Behavioral Response Sequence to Sex Pheromone in the Male Brown-Banded Cockroach, Supella longipalpa,” J. Insect Behavior 3:211-223 (1990), and Liang et al., “Volatile Sex Pheromone in the Female German Cockroach,” Experientia 49:324-328 (1993a), which are hereby incorporated by reference in their entirety. Briefly, a straight Plexiglas tube (55 cm long and 3 cm ID) was divided along 15 cm of its upwind end and air was drawn through it at 20 cm/min. […] The percentage of insects running upwind and the latency, in seconds, before they responded were recorded.

Compound	increase in number of adult males trapped relative to respective controls ([1]; all treatments, field traps)	attractiveness to males in the field ([1]; field, jar traps)	males responding (quiescent males activated and running out of their cage) (male German cockroaches; 10-100 ng of the pheromone on filter paper, FIG. 3)	latency of the male response before leaving cage (male German cockroaches; doses between 10 ng and 1 μg, FIG. 4)	dose-response of male behavioral response (male German cockroaches; various doses on filter paper, FIG. 3)
supellapyrone	6-28 times	highly attractive	–	–	–
CC(C)CC(=O)OCC1=CC(=O)C=CC1=O [synthetic pheromone, gentisyl quinone isovalerate]	–	–	More than 60%	shortest latency	clear dose-response

Reference: patent US20060057101A1, “German cockroach attractant” (priority 2004, published 2006)
